Assay results reported in patent US9073862B2, “Substituted 2-oxy-quinoline-3-carboxamides as KCNQ2/3 modulators” (Grünenthal GmbH, priority 2010, dated 2015).

Columns and labels:
[1] = test system: withdrawal reflex of the rat tail (tail flick) in response to a radiant heat beam; experiment: Low-intensity tail flick test (rat); type: in vivo; settings: po, peroral
Procedure: Method II. Low-Intensity Tail Flick Test (Rat)
In the low-intensity tail flick test, the determination of the antinociceptive effect of the compounds according to the invention towards an acute noxious thermal stimulus is carried out by measuring the withdrawal reflex of the rat tail (tail flick) in response to a radiant heat beam (analgesia meter; model 2011 of the company Rhema Labortechnik, Hofheim, Germany) according to the method described by D'Amour and Smith (J. Pharm. Exp. Ther. 72, 74 79 (1941). To this end, the rats were placed in a plexiglas restrainer, and a low-intensity radiant heat beam (48° C.) was focused onto the dorsal surface of the tail root. The stimulus intensity was adjusted to result in a mean pre-drug control withdrawal latency of about 7 s, thus also allowing a supraspinal modulation of the spinally mediated acute nociceptive reflex. A cutoff time of 30 s was applied to avoid tissue damage. Male Sprague-Dawley rats (Janvier, Le Genest St. Isle, Frankreich) with weights of 200-250 g were used. 10 rats were used per group. Before administration of a compound according to the invention, the animals were pre-tested twice in the course of five minutes and the mean of these measurements was calculated as the pre-test mean. The antinociceptive effect was determined at 20, 40 and 60 min after peroral compound administration. The antinociceptive effect was calculated based on the increase in the tail withdrawal latency according to the following formula and is expressed as percentage of the maximum possible effect (MPE [%]): MPE=[(T1−T0)/(T2−T0)]*100
In this, T0 is the control latency time before and T1 the latency time after administration of the compound, T2 is the cutoff time and MPE is the maximum possible effect. Employing variant analysis (repeated measures ANOVA) allowed testing of statistically significant differences between the compounds according to the invention and the vehicle group. The significance level was set to p≦0.05. To determine the dose dependency, the particular compound according to the invention was administered in 3-5 logarithmically increasing doses, including a threshold dose and a maximum effective dose, and the ED50 values were determined with the aid of regression analysis. The ED50 calculation was performed at the time of maximum efficacy (usually 20 min after administration of the compounds).

[2] = molecular target: T1, KCNQ2/3 channels (Homo sapiens, UniProt O43525+O43526); experiment: Fluorescence assay using a voltage sensitive dye (fluorimetry); type: cell-based; settings: CHO-K1 cells expressing KCNQ2/3 channels; for Emax: relative to retigabine = 100%, read-out: Fluorimetry % efficacy (retigabine = 100%)
T1 construct: expressed in transfected cells; host or cells: CHO-K1
Procedure: Method I. Fluorescence Assay Using a Voltage Sensitive Dye (Fluorimetry)
[…] CHO-K1 cells expressing KCNQ2/3 channels are cultivated adherently at 37° C., 5% CO2 and 95% humidity in cell culture bottles (e.g. 80 cm^2 TC flasks, Nunc) with DMEM-high glucose (Sigma Aldrich, D7777) including 10% FCS (PAN Biotech, e.g. 3302-P270521) or alternatively MEM Alpha Medium (1×, liquid, Invitrogen, #22571), 10% fetal calf serum (FCS) (Invitrogen, #10270-106, heat-inactivated) and the necessary selection antibiotics.
Before being sown out for the measurements, the cells are washed with 1×DPBS buffer Ca^2+/Mg^2+-free (e.g. Invitrogen, #14190-094) and detached from the bottom of the culture vessel by using Accutase (PAA Laboratories, #L11-007) (incubation with Accutase for 15 min at 37° C.). The cell number is determined using a CASY™ cell counter (TCC, Schärfe System). Depending on the optimal density for each individual cell line, 20,000-30,000 cells/well/100 μl are seeded onto 96-well Corning™ CellBIND™ assay plates (Flat Clear Bottom Black Polystyrene Microplates, #3340). Freshly seeded cells are then left to settle for one hour at room temperature, followed by incubation for 24 hours at 37° C., 5% CO2 and 95% humidity.
The voltage-sensitive fluorescent dye from the Membrane Potential Assay Kit (Red™ Bulk format part R8123 for FLIPR, MDS Analytical Technologies™) is prepared by dissolving the contents of one vessel Membrane Potential Assay Kit Red Component A in 200 ml of extracellular buffer (ES buffer, 120 mM NaCl, 1 mM KCl, 10 mM HEPES, 2 mM CaCl2, 2 mM MgCl2, 10 mM glucose; pH 7.4). After removal of the nutrient medium, the cells are washed once with 200 μl of ES buffer, then loaded for 45 min at room temperature in 100 μl of dye solution in the dark.
Fluorescence measurements are carried out in a BMG Labtech FLUOstar™, BMG Labtech NOVOstar™ or BMG Labtech POLARstar™ instrument (525 nm excitation, 560 nm emission, Bottom Read mode). After incubation with the dye, 50 μl of the test substances in the desired concentrations, or 50 μl of ES buffer for control purposes, are applied to the wells of the assay plate and incubated for 30 min at room temperature while being shielded from light. The fluorescence intensity of the dye is then measured for 5 min and the fluorescence value F1 of each well is thus determined at a given, constant time. 15 μl of a KCl solution are then added to each well (final concentration of potassium ions 92 mM). The change in fluorescence intensity is subsequently monitored until all the relevant values have been obtained (mainly 5-30 min). At a given time post KCl application, a fluorescence value F2 is determined, in this case at the time of the fluorescence peak.
For calculation, the fluorescence intensity F2 is corrected for the fluorescence intensity F1, and the activity (ΔF/F) of the target compound on the potassium channel is determined as follows:
In order to determine whether a substance has agonistic activity,
[formula] can be related to
[formula] of control wells.
[formula] is determined by adding to the well only the buffer solution instead of the test substance, determining the value F1K of the fluorescence intensity, adding the potassium ions as described above, and measuring a value F2K of the fluorescence intensity. F2K and F1K are then calculated as follows: […]
A substance has an agonistic activity on the potassium channel if
[formula] is greater than
Independently of the comparison of
[formula] it is possible to conclude that a target compound has agonistic activity if
[formula] increases dose dependently.
Calculations of EC50 and IC50 values are carried out with the aid of ‘Prism v4.0’ software (Graph Pad Software™).

[3] = read-out: Low intensity tail flick, rat, peroral, MPE (dose)

| Compound | EC50 [2] | Emax [2] | ED50 ([1]; at time of maximum efficacy) | inhibition in vivo at 6.81 mg/kg ([1]; dose 6.81 mg/kg, read-out: Low intensity tail flick, rat, peroral, MPE (dose)) | inhibition in vivo at 4.64 mg/kg ([1]; dose 4.64 mg/kg, read-out: Low intensity tail flick, rat, peroral, MPE (dose)) | inhibition in vivo at 10 mg/kg [1, 3] |
| --- | --- | --- | --- | --- | --- | --- |
| CCOc1nc2cc(C(F)(F)F)ccc2c(C)c1C(=O)NCc1ccc(F)c(C)c1 [Example 24, 2-ethoxy-N-[(4-fluoro-3-methyl-phenyl)-methyl]-4-methyl-7-(trifluoromethyl)-quinoline-3-carboxylic acid amide] | 0.053 µM | 108% | – | 17% | – | – |
| CCOc1nc2cc(C(F)(F)F)ccc2c(C)c1C(=O)NCc1cccc(C)c1 [Example 22, 2-ethoxy-4-methyl-N-(m-tolyl-methyl)-7-(trifluoromethyl)-quinoline-3-carboxylic acid amide] | 0.058 µM | 111% | – | – | – | 20% |

The next lines start with results.

| EC50 [2] | Emax [2] | Compound | ED50 ([1]; at time of maximum efficacy) | inhibition in vivo at 6.81 mg/kg ([1]; dose 6.81 mg/kg, read-out: Low intensity tail flick, rat, peroral, MPE (dose)) | inhibition in vivo at 4.64 mg/kg ([1]; dose 4.64 mg/kg, read-out: Low intensity tail flick, rat, peroral, MPE (dose)) | inhibition in vivo at 10 mg/kg [1, 3] |
| --- | --- | --- | --- | --- | --- | --- |
| 0.096 µM | 92% | COCCOc1nc2cc(C(F)(F)F)ccc2c(C)c1C(=O)NCc1cccc(F)c1 [Example 7, N-[(3-fluorophenyl)-methyl]-2-(2-methoxy-ethoxy)-4-methyl-7-(trifluoromethyl)-quinoline-3-carboxylic acid amide] | 10 mg/kg | – | – | – |
| 0.058 µM | 132% | CCOc1nc2cc(C(F)(F)F)ccc2c(C)c1C(=O)NCc1cccc(F)c1 [Example 6, 2-ethoxy-N-[(3-fluorophenyl)-methyl]-4-methyl-7-(trifluoromethyl)-quinoline-3-carboxylic acid amide] | – | – | 67% | – |
| 0.136 µM | 147% | COc1nc2cc(C(F)(F)F)ccc2c(OC)c1C(=O)NCc1cccc(F)c1 [Example 13, N-[(3-fluorophenyl)-methyl]-2,4-dimethoxy-7-(trifluoromethyl)-quinoline-3-carboxylic acid amide] | – | – | – | 10% |
